From PubChem BioAssay (NCI)
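Grown in 96-well plates, cells were treated for 48 hours with each compound at five concentrations. Insufficient inhibition: endpoint recorded as highest concentration tested. TGI is the concentration that stops growth completely.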

Tests used:
Assay in all cases: NCI anticancer screen, dose series, 48 h
SF-268 CNS = tested on: SF-268 CNS
T-47D breast = tested on: T-47D breast
SNB-19 CNS = tested on: SNB-19 CNS
RXF 393 renal = tested on: RXF 393 renal
MCF7 breast = tested on: MCF7 breast
LOX IMVI melanoma = tested on: LOX IMVI melanoma
SK-MEL-28 melanoma = tested on: SK-MEL-28 melanoma
SK-OV-3 ovarian = tested on: SK-OV-3 ovarian
HS 578T breast = tested on: HS 578T breast
NCI-H226 lung = tested on: NCI-H226 lung
M14 melanoma = tested on: M14 melanoma
A549 NSCLC = tested on: A549 NSCLC
MDA-MB-231 breast = tested on: MDA-MB-231 breast
CAKI-1 renal = tested on: CAKI-1 renal
SF-539 CNS = tested on: SF-539 CNS
U251 CNS = tested on: U251 CNS
OVCAR-3 ovarian = tested on: OVCAR-3 ovarian
HOP-92 NSCLC = tested on: HOP-92 NSCLC
BT-549 breast = tested on: BT-549 breast
MOLT-4 leukemia = tested on: MOLT-4 leukemia
HCT-116 colon = tested on: HCT-116 colon
HCT-15 colon = tested on: HCT-15 colon
SF-295 CNS = tested on: SF-295 CNS
SNB-75 CNS = tested on: SNB-75 CNS
HT29 colon = tested on: HT29 colon
PC-3 prostate = tested on: PC-3 prostate
SN12C renal = tested on: SN12C renal
OVCAR-8 ovarian = tested on: OVCAR-8 ovarian
CCRF-CEM leukemia = tested on: CCRF-CEM leukemia
MDA-MB-435 = tested on: MDA-MB-435
SK-MEL-5 melanoma = tested on: SK-MEL-5 melanoma
NCI-H460 lung = tested on: NCI-H460 lung
A498 renal = tested on: A498 renal
NCI/ADR-RES ovarian = tested on: NCI/ADR-RES ovarian
UACC-257 melanoma = tested on: UACC-257 melanoma
COLO 205 colon = tested on: COLO 205 colon
TK-10 renal = tested on: TK-10 renal
MDA-N = tested on: MDA-N
786-0 renal = tested on: 786-0 renal
HCC-2998 colon = tested on: HCC-2998 colon
ACHN renal = tested on: ACHN renal
RPMI-8226 leukemia = tested on: RPMI-8226 leukemia
EKVX NSCLC = tested on: EKVX NSCLC
DU-145 prostate = tested on: DU-145 prostate
SR leukemia = tested on: SR leukemia
OVCAR-4 ovarian = tested on: OVCAR-4 ovarian
KM12 colon = tested on: KM12 colon
OVCAR-5 ovarian = tested on: OVCAR-5 ovarian
HOP-62 NSCLC = tested on: HOP-62 NSCLC
UACC-62 melanoma = tested on: UACC-62 melanoma
MALME-3M melanoma = tested on: MALME-3M melanoma
K-562 leukemia = tested on: K-562 leukemia
IGROV1 ovarian = tested on: IGROV1 ovarian
SK-MEL-2 melanoma = tested on: SK-MEL-2 melanoma
NCI-H23 lung = tested on: NCI-H23 lung
UO-31 renal = tested on: UO-31 renal
SW-620 colon = tested on: SW-620 colon

## O=Cc1ccc(Oc2c3ccccc3nc3ccccc23)cc1
SF-268 CNS
  TGI: 17.6 µM
T-47D breast
  TGI: 12.5 µM
SNB-19 CNS
  TGI: 36.4 µM
RXF 393 renal
  TGI: 21.5 µM
MCF7 breast
  TGI: 45.4 µM
LOX IMVI melanoma
  TGI: 11.7 µM
SK-MEL-28 melanoma
  TGI: 25.6 µM
SK-OV-3 ovarian
  TGI: 21.6 µM
HS 578T breast
  TGI: 7.91 µM
NCI-H226 lung
  TGI: 20.2 µM
M14 melanoma
  TGI: 10.7 µM
A549 NSCLC
  TGI: 49 µM
MDA-MB-231 breast
  TGI: 13.3 µM
CAKI-1 renal
  TGI: 22.3 µM
SF-539 CNS
  TGI: 4.12 µM
U251 CNS
  TGI: 21.9 µM
OVCAR-3 ovarian
  TGI: 26 µM
HOP-92 NSCLC
  TGI: 17.7 µM
BT-549 breast
  TGI: 37.4 µM
MOLT-4 leukemia
  TGI: 6.08 µM
HCT-116 colon
  TGI: 4.9 µM
HCT-15 colon
  TGI: 19.5 µM
SF-295 CNS
  TGI: 55.4 µM
SNB-75 CNS
  TGI: 29.5 µM
HT29 colon
  TGI: 4.38 µM
PC-3 prostate
  TGI: 20.1 µM
SN12C renal
  TGI: 11.1 µM
OVCAR-8 ovarian
  TGI: 21 µM
CCRF-CEM leukemia
  TGI: 6.72 µM
MDA-MB-435
  TGI: 6.85 µM
SK-MEL-5 melanoma
  TGI: 24.2 µM
NCI-H460 lung
  TGI: 33.8 µM
A498 renal
  TGI: 14.5 µM
NCI/ADR-RES ovarian
  TGI: > 100 µM
UACC-257 melanoma
  TGI: 4.89 µM
COLO 205 colon
  TGI: 10.1 µM
TK-10 renal
  TGI: 19.5 µM
MDA-N
  TGI: 13.8 µM
786-0 renal
  TGI: 6.16 µM
HCC-2998 colon
  TGI: 28.6 µM
ACHN renal
  TGI: 14 µM
RPMI-8226 leukemia
  TGI: 5.95 µM
EKVX NSCLC
  TGI: 40.2 µM
DU-145 prostate
  TGI: 13.7 µM
SR leukemia
  TGI: 7.19 µM
OVCAR-4 ovarian
  TGI: 16.3 µM
KM12 colon
  TGI: 58.7 µM
OVCAR-5 ovarian
  TGI: 16.7 µM
HOP-62 NSCLC
  TGI: 33.9 µM
UACC-62 melanoma
  TGI: 2.74 µM
MALME-3M melanoma
  TGI: 30 µM

## COc1ccc(-c2nc3ccccc3c(=O)[nH]2)cc1OC
SF-268 CNS
  TGI: 60 µM
K-562 leukemia
  TGI: > 100 µM
T-47D breast
  TGI: > 100 µM
SNB-19 CNS
  TGI: 79 µM
RXF 393 renal
  TGI: 68.1 µM
MCF7 breast
  TGI: > 100 µM
SK-OV-3 ovarian
  TGI: > 100 µM
HS 578T breast
  TGI: 83.1 µM
NCI-H226 lung
  TGI: 55.8 µM
M14 melanoma
  TGI: > 100 µM
A549 NSCLC
  TGI: > 100 µM
MDA-MB-231 breast
  TGI: 77 µM
CAKI-1 renal
  TGI: > 100 µM
SF-539 CNS
  TGI: 80.5 µM
U251 CNS
  TGI: 80.5 µM
OVCAR-3 ovarian
  TGI: > 100 µM
BT-549 breast
  TGI: > 100 µM
MOLT-4 leukemia
  TGI: > 100 µM
IGROV1 ovarian
  TGI: 81.5 µM
HCT-116 colon
  TGI: > 100 µM
HCT-15 colon
  TGI: > 100 µM
SF-295 CNS
  TGI: > 100 µM
SNB-75 CNS
  TGI: 55.6 µM
HT29 colon
  TGI: > 100 µM
PC-3 prostate
  TGI: > 100 µM
SN12C renal
  TGI: > 100 µM
OVCAR-8 ovarian
  TGI: 67.5 µM
CCRF-CEM leukemia
  TGI: > 100 µM
SK-MEL-2 melanoma
  TGI: > 100 µM
MDA-MB-435
  TGI: > 100 µM
SK-MEL-5 melanoma
  TGI: > 100 µM
NCI-H460 lung
  TGI: > 100 µM
NCI-H23 lung
  TGI: > 100 µM
NCI/ADR-RES ovarian
  TGI: > 100 µM
UACC-257 melanoma
  TGI: > 100 µM
COLO 205 colon
  TGI: > 100 µM
UO-31 renal
  TGI: > 100 µM
MDA-N
  TGI: > 100 µM
786-0 renal
  TGI: > 100 µM
HCC-2998 colon
  TGI: > 100 µM
RPMI-8226 leukemia
  TGI: > 100 µM
EKVX NSCLC
  TGI: 53.2 µM
SW-620 colon
  TGI: > 100 µM
DU-145 prostate
  TGI: > 100 µM
SR leukemia
  TGI: > 100 µM
OVCAR-4 ovarian
  TGI: > 100 µM
KM12 colon
  TGI: > 100 µM
OVCAR-5 ovarian
  TGI: > 100 µM
HOP-62 NSCLC
  TGI: > 100 µM
UACC-62 melanoma
  TGI: > 100 µM
MALME-3M melanoma
  TGI: > 100 µM
